Test results reported in ChEMBL document CHEMBL5036347, “Design of the naphthyl-diarylpyrimidines as potent non-nucleoside reverse transcriptase inhibitors (NNRTIs) via structure-based extension into the entrance channel” (Eur J Med Chem, 2021).
In brackets after ≈: the same amount, converted by molar mass.

Columns and labels:
[1] = Water solubility of compound at pH 7 at 0.1 to 10 mg by HPLC-UV analysis; type: physicochemical; settings: dose 0.1-10 mg
[2] = Water solubility of compound at pH 2 at 0.1 to 10 mg by HPLC-UV analysis; type: physicochemical; settings: dose 0.1-10 mg
[3] = Water solubility of compound at pH 7.4 at 0.1 to 10 mg by HPLC-UV analysis; type: physicochemical; settings: dose 0.1-10 mg
[4] = test system: Human immunodeficiency virus 1; test: Anti-HIV activity against HIV-1 IIIB infected in human MT4 cells assessed as reduction in virus-induced cytopathic effect incubated for 5 days by MTT assay; type: functional, organism-based; settings: Human immunodeficiency virus 1, IIIB, MT4, 120 h
[5] = test system: Human immunodeficiency virus 1; test: Antiviral activity against HIV1 harboring reverse transcriptase Y181C mutant infected in human MT4 cells assessed as protection against virus-induced cytopathic effect incubated for 5 days by MTT assay; type: functional, organism-based; settings: Human immunodeficiency virus 1, MT4, 120 h
[6] = test system: Human immunodeficiency virus 1; test: Antiviral activity against HIV1 harboring reverse transcriptase Y188L mutant infected in human MT4 cells assessed as protection against virus-induced cytopathic effect incubated for 5 days by MTT assay; type: functional, organism-based; settings: Human immunodeficiency virus 1, MT4, 120 h
[7] = test system: Human immunodeficiency virus 1; test: Antiviral activity against HIV1 harboring reverse transcriptase F227L/V106A mutant infected in human MT4 cells assessed as protection against virus-induced cytopathic effect incubated for 5 days by MTT assay; type: functional, organism-based; settings: Human immunodeficiency virus 1, MT4, 120 h
[8] = test system: Human immunodeficiency virus 1; test: Antiviral activity against HIV1 harboring reverse transcriptase E138K mutant infected in human MT4 cells assessed as protection against virus-induced cytopathic effect incubated for 5 days by MTT assay; type: functional, organism-based; settings: Human immunodeficiency virus 1, MT4, 120 h
[9] = test system: Human immunodeficiency virus 1; test: Antiviral activity against HIV1 harboring reverse transcriptase K103N/Y181C double mutant infected in human MT4 cells assessed as protection against virus-induced cytopathic effect incubated for 5 days by MTT assay; type: functional, organism-based; settings: Human immunodeficiency virus 1, MT4, 120 h
[10] = test system: Human immunodeficiency virus 1; test: Antiviral activity against HIV1 harboring reverse transcriptase K103N mutant infected in human MT4 cells assessed as protection against virus-induced cytopathic effect incubated for 5 days by MTT assay; type: functional, organism-based; settings: Human immunodeficiency virus 1, MT4, 120 h
[11] = test system: Human immunodeficiency virus 1; test: Antiviral activity against HIV1 harboring reverse transcriptase L100I mutant infected in human MT4 cells assessed as protection against virus-induced cytopathic effect incubated for 5 days by MTT assay; type: functional, organism-based; settings: Human immunodeficiency virus 1, MT4, 120 h
[12] = Resistance fold, ratio of EC50 for HIV1 harboring reverse transcriptase K103N/Y181C double mutant […] to EC50 for wild type HIV1 […]; type: functional
[13] = Resistance fold, ratio of EC50 for HIV1 harboring reverse transcriptase Y181C mutant […] to EC50 for wild type HIV1 […]; type: functional
[14] = Cytotoxicity against human MT4 cells assessed as reduction in cell viability incubated for 5 days by MTT assay; type: cell-based; settings: human, MT4 cells; time 5 day
[15] = Resistance fold, ratio of EC50 for HIV1 harboring reverse transcriptase Y188L mutant […] to EC50 for wild type HIV1 […]; type: functional
[16] = test system: Human immunodeficiency virus 2; test: Anti-HIV activity against HIV2 ROD infected in human MT4 cells assessed as reduction in virus-induced cytopathic effect incubated for 5 days by MTT assay; type: functional, organism-based; settings: Human immunodeficiency virus 2, ROD, MT4, 120 h
[17] = Resistance fold, ratio of EC50 for HIV1 harboring reverse transcriptase K103N mutant […] to EC50 for wild type HIV1 […]; type: functional
[18] = Resistance fold, ratio of EC50 for HIV1 harboring reverse transcriptase E138K mutant […] to EC50 for wild type HIV1 […]; type: functional
[19] = Resistance fold, ratio of EC50 for HIV1 harboring reverse transcriptase F227L/V106A double mutant […] to EC50 for wild type HIV1 […]; type: functional
[20] = Selectivity index, ratio of CC50 for cytotoxicity against human MT4 cells to EC50 of Anti-HIV activity against HIV-1 IIIB infected in human MT4; type: toxicity, cell-based; settings: read-out: Selectivity Index

Compound | solubility [1] | solubility [2] | solubility [3] | other results
CC(=O)O.COc1cc2cc(C#N)ccc2c(OC)c1Oc1cc(N2CCC(O)C2)nc(Nc2ccc(C#N)cc2)n1 (configuration not stated) | < 1 µg/mL | < 1 µg/mL | 3 µg/mL | –
CCNc1cc(Oc2c(OC)cc3cc(C#N)ccc3c2OC)nc(Nc2ccc(C#N)cc2)n1.Cc1ccc(S(=O)(=O)O)cc1 | < 1 µg/mL | < 1 µg/mL | 12 µg/mL | –
CCNc1cc(Oc2c(OC)cc3cc(C#N)ccc3c2OC)nc(Nc2ccc(C#N)cc2)n1.O=C(O)/C=C\C(=O)O | 1 µg/mL | 2 µg/mL | 47 µg/mL | –
COc1cc2cc(C#N)ccc2c(OC)c1Oc1cc(N)nc(Nc2ccc(C#N)cc2)n1.O=C(O)C(F)(F)F | 1 µg/mL | < 1 µg/mL | 3 µg/mL | –
COc1cc2cc(C#N)ccc2c(OC)c1Oc1cc(N2CCC(O)C2)nc(Nc2ccc(C#N)cc2)n1.CS(=O)(=O)O (configuration not stated) | < 1 µg/mL | < 1 µg/mL | 2 µg/mL | –
CCNc1cc(Oc2c(OC)cc3cc(C#N)ccc3c2OC)nc(Nc2ccc(C#N)cc2)n1.O=S(=O)(O)O | 4 µg/mL | 9 µg/mL | 115 µg/mL | –
CCNc1cc(Oc2c(OC)cc3cc(C#N)ccc3c2OC)nc(Nc2ccc(C#N)cc2)n1.O=CO | < 1 µg/mL | < 1 µg/mL | 2 µg/mL | –
COc1cc2cc(C#N)ccc2c(OC)c1Oc1cc(N2CCC(O)C2)nc(Nc2ccc(C#N)cc2)n1.O=C(O)C(F)(F)F (configuration not stated) | < 1 µg/mL | < 1 µg/mL | 1 µg/mL | –
CCNc1cc(Oc2c(OC)cc3cc(C#N)ccc3c2OC)nc(Nc2ccc(C#N)cc2)n1.O=C(O)C(F)(F)F | < 1 µg/mL | < 1 µg/mL | < 1 µg/mL | –
CC(=O)O.COc1cc2cc(C#N)ccc2c(OC)c1Oc1cc(N)nc(Nc2ccc(C#N)cc2)n1 | < 1 µg/mL | < 1 µg/mL | < 1 µg/mL | –
COc1cc2cc(C#N)ccc2c(OC)c1Oc1cc(N)nc(Nc2ccc(C#N)cc2)n1.O=C(O)C(O)C(O)C(=O)O | < 1 µg/mL | < 1 µg/mL | 29 µg/mL | –
COc1cc2cc(C#N)ccc2c(OC)c1Oc1cc(N2CCC(O)C2)nc(Nc2ccc(C#N)cc2)n1.O=C(O)C(O)C(O)C(=O)O (configuration not stated) | < 1 µg/mL | < 1 µg/mL | 3 µg/mL | –
COc1cc2cc(C#N)ccc2c(OC)c1Oc1cc(N2CCC(O)C2)nc(Nc2ccc(C#N)cc2)n1.O=S(=O)(O)O (configuration not stated) | < 1 µg/mL | < 1 µg/mL | 2 µg/mL | –
CCNc1cc(Oc2c(OC)cc3cc(C#N)ccc3c2OC)nc(Nc2ccc(C#N)cc2)n1.Cl | < 1 µg/mL | 9 µg/mL | 11 µg/mL | –
COc1cc2cc(C#N)ccc2c(OC)c1Oc1cc(N)nc(Nc2ccc(C#N)cc2)n1.O=C(O)/C=C\C(=O)O | 7 µg/mL | 13 µg/mL | 28 µg/mL | –
Br.CCNc1cc(Oc2c(OC)cc3cc(C#N)ccc3c2OC)nc(Nc2ccc(C#N)cc2)n1 | 1 µg/mL | 1 µg/mL | 1 µg/mL | –
COc1cc2cc(C#N)ccc2c(OC)c1Oc1cc(N)nc(Nc2ccc(C#N)cc2)n1.Cl | 1 µg/mL | 6 µg/mL | 84 µg/mL | –
Br.COc1cc2cc(C#N)ccc2c(OC)c1Oc1cc(N)nc(Nc2ccc(C#N)cc2)n1 | < 1 µg/mL | < 1 µg/mL | < 1 µg/mL | –
CCNc1cc(Oc2c(OC)cc3cc(C#N)ccc3c2OC)nc(Nc2ccc(C#N)cc2)n1.O=C(O)CC(O)(CC(=O)O)C(=O)O | < 1 µg/mL | 1 µg/mL | 1 µg/mL | –
COc1cc2cc(C#N)ccc2c(OC)c1Oc1cc(N)nc(Nc2ccc(C#N)cc2)n1.O=CO | < 1 µg/mL | 1 µg/mL | 2 µg/mL | –

Compound | solubility [1] | solubility [2] | solubility [3] | other results
CCNc1cc(Oc2c(OC)cc3cc(C#N)ccc3c2OC)nc(Nc2ccc(C#N)cc2)n1.O=C(O)C(O)C(O)C(=O)O | < 1 µg/mL | 1 µg/mL | 29 µg/mL | –
COc1cc2cc(C#N)ccc2c(OC)c1Oc1cc(N2CCC(O)C2)nc(Nc2ccc(C#N)cc2)n1.I (configuration not stated) | < 1 µg/mL | < 1 µg/mL | 9 µg/mL | –
COc1cc2cc(C#N)ccc2c(OC)c1Oc1cc(N)nc(Nc2ccc(C#N)cc2)n1.Cc1ccc(S(=O)(=O)O)cc1 | < 1 µg/mL | 2 µg/mL | 2 µg/mL | –
CCNc1cc(Oc2c(OC)cc3cc(C#N)ccc3c2OC)nc(Nc2ccc(C#N)cc2)n1.I | < 1 µg/mL | 1 µg/mL | 1 µg/mL | –
COc1cc2cc(C#N)ccc2c(OC)c1Oc1cc(N2CCC(O)C2)nc(Nc2ccc(C#N)cc2)n1.O=CO (configuration not stated) | < 1 µg/mL | < 1 µg/mL | 3 µg/mL | –
CCNc1cc(Oc2c(OC)cc3cc(C#N)ccc3c2OC)nc(Nc2ccc(C#N)cc2)n1.CS(=O)(=O)O | < 1 µg/mL | < 1 µg/mL | 1 µg/mL | –
COc1cc2cc(C#N)ccc2c(OC)c1Oc1cc(N)nc(Nc2ccc(C#N)cc2)n1.O=C(O)CC(O)(CC(=O)O)C(=O)O | < 1 µg/mL | < 1 µg/mL | 4 µg/mL | –
COc1cc2cc(C#N)ccc2c(OC)c1Oc1cc(N2CCC(O)C2)nc(Nc2ccc(C#N)cc2)n1.O=C(O)CC(O)(CC(=O)O)C(=O)O (configuration not stated) | < 1 µg/mL | < 1 µg/mL | < 2 µg/mL | –
COc1cc2cc(C#N)ccc2c(OC)c1Oc1cc(N)nc(Nc2ccc(C#N)cc2)n1.I | < 1 µg/mL | < 1 µg/mL | 1 µg/mL | –
CC(=O)O.CCNc1cc(Oc2c(OC)cc3cc(C#N)ccc3c2OC)nc(Nc2ccc(C#N)cc2)n1 | < 1 µg/mL | 1 µg/mL | 19 µg/mL | –
COc1cc2cc(C#N)ccc2c(OC)c1Oc1cc(N2CCC(O)C2)nc(Nc2ccc(C#N)cc2)n1.Cl (configuration not stated) | < 1 µg/mL | < 1 µg/mL | 2 µg/mL | –
COc1cc2cc(C#N)ccc2c(OC)c1Oc1cc(N)nc(Nc2ccc(C#N)cc2)n1.CS(=O)(=O)O | < 1 µg/mL | 4 µg/mL | 11 µg/mL | –
Br.COc1cc2cc(C#N)ccc2c(OC)c1Oc1cc(N2CCC(O)C2)nc(Nc2ccc(C#N)cc2)n1 (configuration not stated) | < 1 µg/mL | < 1 µg/mL | < 1 µg/mL | –
COc1cc2cc(C#N)ccc2c(OC)c1Oc1cc(N)nc(Nc2ccc(C#N)cc2)n1.O=S(=O)(O)O | < 1 µg/mL | < 1 µg/mL | 72 µg/mL | –
COc1cc2cc(C#N)ccc2c(OC)c1Oc1cc(N2CCC(O)C2)nc(Nc2ccc(C#N)cc2)n1.O=C(O)/C=C\C(=O)O (configuration not stated) | < 1 µg/mL | < 1 µg/mL | 5 µg/mL | –
COc1cc2cc(C#N)ccc2c(OC)c1Oc1cc(N2CCC(O)C2)nc(Nc2ccc(C#N)cc2)n1.Cc1ccc(S(=O)(=O)O)cc1 (configuration not stated) | 6 µg/mL | 8 µg/mL | 13 µg/mL | –
O=C1Nc2ccc(Cl)cc2[C@@](C#CC2CC2)(C(F)(F)F)O1 [EFAVIRENZ] | – | – | – | EC50 [4]: 4.3 nM; EC50 [5]: 7.4 nM; EC50 [6]: 7.3 nM; EC50 [7]: 330 nM; EC50 [8]: 5.3 nM; EC50 [9]: 220 nM; EC50 [10]: 140 nM; EC50 [11]: 95 nM
Cc1cc(C#N)cc(C)c1Oc1nc(Nc2ccc(C#N)cc2)nc(N)c1Br [ETRAVIRINE] | < 1 µg/mL | 127 µg/mL (≈ 292 µM) | 1 µg/mL (≈ 2.3 µM) | EC50 [5]: 21 nM; EC50 [6]: 30 nM; EC50 [7]: 27 nM; EC50 [8]: 21 nM; EC50 [9]: 52 nM; EC50 [10]: 3.8 nM; EC50 [11]: 14 nM
Cc1ccnc2c1NC(=O)c1cccnc1N2C1CC1 [NEVIRAPINE] | – | – | – | EC50 [4]: 22000 nM; EC50 [5]: 7150 nM; EC50 [8]: 330 nM; EC50 [10]: 8490 nM
Cc1cn([C@H]2C[C@H](N=[N+]=[N-])[C@@H](CO)O2)c(=O)[nH]c1=O [ZIDOVUDINE] | – | – | – | Ratio EC50 [12]: 1; EC50 [4]: 29 nM; EC50 [5]: 31 nM; EC50 [6]: 29 nM; Ratio EC50 [13]: 1; CC50 at 120 h [14]: > 2000 nM; Ratio EC50 [15]: 1; EC50 [16]: 20 nM; EC50 [7]: 31 nM; EC50 [8]: 51 nM; EC50 [9]: 33 nM; EC50 [10]: 32 nM; Ratio EC50 [17]: 2; Ratio EC50 [18]: 2; EC50 [11]: 10 nM; Ratio EC50 [19]: 1; selectivity ratio [20]: > 240
